How the values were obtained:
[1] = test system: human smooth muscle cells; experiment: Cladribine example, PDGF-stimulated cell proliferation, smooth muscle cells; format: cell-based; settings: for % of PDGF-stimulated increase in cell count: SMC, day six, mean of triplicate
Procedure: (§1) To assess the ability of cladribine to prevent cell proliferation, human smooth muscle or endothelial cells (Clonetics, Walkersville, Md.) were seeded at a density of 2000 cells/cm^2 (approximately 3600 cells/well) into each well of 12-well plates and cultured with 1.5 ml of growth medium containing five percent fetal calf serum (FCS). After twenty-four hours, the growth medium was changed and fresh medium containing 10 ng/ml platelet-derived growth factor AB (PDGF AB; LIFE Technologies), as well as various concentrations of cladribine (0.001-10,000 nM) were added with triplicate wells. Medium was replaced with fresh cladribine-containing medium after three days. On day six, cells were detached by trypsinization to yield a cell suspension, lightly centrifuged to pellet and then counted manually using a Neubauer hemocytometer system. Cell viability was assessed by trypan blue exclusion.

[2] = test system: human coronary artery smooth muscle cells; experiment: anti-proliferative activity in non-synchronized cultured cells stimulated with two percent fetal bovine serum; format: cell-based
Description: The multiple curves represent various concentrations of mycophenolic acid ranging from zero to one thousand nanomolar concentrations.
FIG. 58 illustrates, in graphical format, the anti-proliferative activity of cladribine in non-synchronized cultured human coronary artery smooth muscle cells stimulated with two percent fetal bovine serum.
The multiple curves represent various concentrations of cladribine ranging from zero to nine hundred nanomolar concentrations.

human endothelial cells = experiment: Cladribine example, PDGF-stimulated cell proliferation, endothelial cells; format: cell-based; settings: for % of PDGF-stimulated increase in cell count: EC, day six, mean of triplicate
Procedure: as §1

[3] = in vivo release kinetics of cladribine from polymeric stent coatings; design: species or system Yorkshire pig; settings: Bx Velocity stents
Description: FIG. 61 is a graphical representation of the in vivo release kinetics of cladribine from a polymeric coating on BxVelocity® stents, available from Cordis Corporation, implanted in a Yorkshire pig. The basecoat comprises an 85/15 ratio of PVDF and HFP and cladribine for a total combined weight of one thousand eight hundred micrograms (cladribine comprising thirty percent of the total weight). […]
(§2) The basecoat is applied to Bx Velocity® stents and implanted into Yorkshire pigs.
as §2

cell viability = cell viability assay; format: cell-based
Description: (§3) The multiple curves represent various concentrations of topotecan ranging from zero to three hundred nanomolar concentrations.
(§4) The multiple curves represent various concentrations of etoposide ranging from zero to eight hundred nanomolar concentrations.

[4] = test system: human coronary artery smooth muscle cells; experiment: anti-proliferative activity in synchronized cultured cells stimulated with two percent fetal bovine serum; format: cell-based
Description: as §3, §4
The multiple curves represent various concentrations of Panzem® ranging from zero to 100 micromolar concentrations.

[5] = in vivo release kinetics from rapamycin, mycophenolic acid and polymer coating, porcine pharmacokinetics studies; settings: 180 micrograms each drug, with or without BMA topcoat
tumor cell lines = tumor cell lines (Woo et al., 2002); cited from earlier work
[6] = test system: human coronary artery smooth muscle cell proliferation; experiment: in vitro cell culture study, coronary artery smooth muscle cell proliferation; format: cell-based
Description: FIG. 51 is a graph of the inhibition of coronary artery smooth muscle cells by trichostatin A in a cell culture study.

Nc1nc(Cl)nc2c1ncn2[C@H]1C[C@H](O)[C@@H](CO)O1 [Cladribine, 2-chlorodeoxyadenosine]
IC50 ([1]; Homo sapiens, PDGF AB stimulated, reduction to 50 percent of vehicle-treated cell count, read-out: IC50 for inhibition of smooth muscle cell growth): 23 nM
% of PDGF-stimulated increase in cell count ([1]; cladribine 0.01 nM): 104%
% of PDGF-stimulated increase in cell count ([1]; cladribine 0.1 nM): 86%
% of PDGF-stimulated increase in cell count ([1]; cladribine 1 nM): 85%
% of PDGF-stimulated increase in cell count ([1]; cladribine 10 nM): 54%
% of PDGF-stimulated increase in cell count ([1]; cladribine 100 nM): 58%
% of PDGF-stimulated increase in cell count ([1]; cladribine 1000 nM): 12%
% of PDGF-stimulated increase in cell count ([1]; cladribine 10,000 nM): −4%
potency on smooth muscle cells relative to endothelial cells ([1]; from the IC50 values): approximately twice as potent
effect of addition on anti-proliferative activity of rapamycin ([2]; cladribine zero to nine hundred nanomolar added to rapamycin, non-synchronized cells): increases the percent inhibition of rapamycin alone
inhibition of human coronary artery smooth muscle cell proliferation ([2]; non-synchronized cells, two percent fetal bovine serum): completely inhibits
IC50 ([2]; non-synchronized human coronary artery smooth muscle cells, two percent fetal bovine serum): ~241 nM
% of PDGF-stimulated increase in cell count (human endothelial cells; cladribine 0.001 nM): 100%
% of PDGF-stimulated increase in cell count (human endothelial cells; cladribine 0.01 nM): 90%
% of PDGF-stimulated increase in cell count (human endothelial cells; cladribine 0.1 nM): 79%
% of PDGF-stimulated increase in cell count (human endothelial cells; cladribine 1 nM): 75%
% of PDGF-stimulated increase in cell count (human endothelial cells; cladribine 10 nM): 59%
% of PDGF-stimulated increase in cell count (human endothelial cells; cladribine 100 nM): 57%
% of PDGF-stimulated increase in cell count (human endothelial cells; cladribine 1000 nM): 35%
% of PDGF-stimulated increase in cell count (human endothelial cells; cladribine 10,000 nM): 10%
IC50 (human endothelial cells; Homo sapiens, Endothelial cell, PDGF AB stimulated, reduction to 50 percent of vehicle-treated cell count, read-out: IC50 for inhibition of endothelial cell growth): 40 nM
elution from PVDF/HFP (85/15) coating ([3]; Yorkshire pig, 1800 microgram basecoat with thirty percent cladribine, 300 microgram topcoat): levels off significantly
elution from EVA/BMA basecoat compared with rapamycin ([3]; Yorkshire pigs, 200 microgram BMA topcoat): elutes more rapidly than rapamycin

COc1cc([C@@H]2c3cc4c(cc3[C@@H](O[C@@H]3O[C@@H]5CO[C@@H](C)O[C@H]5[C@H](O)[C@H]3O)[C@H]3COC(=O)[C@H]23)OCO4)cc(OC)c1O [Etoposide, etoposide]
cytotoxicity (cell viability; at concentrations up to ten micromolar): non-cytotoxic
effect of addition on anti-proliferative activity of rapamycin ([4]; etoposide zero to eight hundred nanomolar added to rapamycin): increases the percent inhibition of rapamycin alone

COc1cc2c(cc1O)CC[C@@H]1[C@@H]2CC[C@]2(C)[C@@H](O)CC[C@@H]12 [Panzem®, 2-methoxyestradiol]
effect of addition on anti-proliferative activity of rapamycin ([4]; Panzem zero to 100 micromolar added to rapamycin): increases the percent of inhibition of rapamycin alone
anti-proliferative activity alone ([4]; two percent fetal bovine serum): extremely effective inhibitor

CC[C@@]1(O)C(=O)OCc2c1cc1n(c2=O)Cc2cc3c(CN(C)C)c(O)ccc3nc2-1 [Topotecan, topotecan]
cytotoxicity (cell viability; at concentrations up to one micromolar): non-cytotoxic
effect of addition on anti-proliferative activity of rapamycin ([4]; topotecan zero to three hundred nanomolar added to rapamycin): increases the percent inhibition of rapamycin alone

COc1c(C)c2c(c(O)c1C/C=C(\C)CCC(=O)O)C(=O)OC2 [mycophenolic acid]
release from EVA/BMA basecoat compared with rapamycin [5]: elutes more completely over a shorter duration than the rapamycin
effect of addition on anti-proliferative activity of rapamycin ([2]; mycophenolic acid zero to one thousand nanomolar added to rapamycin, non-synchronized cells): potentiates the anti-proliferative activity of rapamycin

CC(/C=C/C(=O)NO)=C\[C@@H](C)C(=O)c1ccc(N(C)C)cc1 [trichostatin A]
anti-proliferative IC50 (tumor cell lines): low nM range
IC50 ([6]; human coronary artery smooth muscle cells, cell culture, read-out: anti-proliferative IC50): ~6 nM
inhibition of human coronary artery smooth muscle cell proliferation ([6]; in vitro cell culture): completely inhibit

Source: patent US20050220836A1, “Drug delivery device” (priority 2004, published 2005)
